Experimental data reported in patent US9078915B2, “Prostate carcinogenesis predictor” (University of South Florida, priority 2007, dated 2015).

How the values were obtained:
DU-145 cells = experiment: Cell viability, trypan blue exclusion assay, DU-145; type: cell-based, human
Method: (§1) The siRNAs complexes were made according to the following procedures: 60 μl of siRNAs (10 μM stock solution) were combined with 60 μl of tranfection reagent and incubated at room temperature for 30 minutes to make the siRNA complex. The siRNA complex was then added to twenty four hours post plated cells giving a final concentration of 50 nM of siRNA complex in complete media. The cells were incubated with either siRNA-A, or PKC-ι, PKC-ζ, and PKC-δ siRNA (50 nM for RWPE-1, 100 nM for LNCaP and 150 nM for DU-145 respectively). Following treatments, the cells were washed with phosphate buffered saline (PBS), trypsinized and resuspended in 2-3 ml of PBS.
(§2) Cell viability was quantified using trypan blue exclusion assay and the numbers of unstained cells were counted as mentioned above. Three independent experiments were carried out for each treatment with controls. Cell viability was determined relative to vehicle control using the mean and SD for each time point. Statistical determination by Student's T test using Minitab program (Minitab Inc. State College, Pa.).
(§3) Subconfluent RWPE-1 (A), LNCaP (B) and DU-145 (C) cells (2.5×10^5) were treated with PKC-ι siRNA (50 nM for RWPE-1, 100 nM for LNCaP and 150 nM for DU-145) complex from 24-72 h as described in “Materials and Methods.” At the indicated time, the viable cells were counted using trypan blue exclusion assay and a hematocyometry. Three independent experiments were performed and the mean of the viable cells and SD were plotted. After titrating PKC-ι siRNA concentrations from 50-100 nM, we used an optimal concentration of PKC-ι siRNA (50 nM) and control siRNA to suppress PKC-ι expression. […]
(§4) Cell lysates (50 μg) of an exponentially growing DU-145 cells were immunoprecipitated with either rabbit polyclonal PKC-ι antibody and/or IKKα/β rabbit polyclonal antibody. […] After incubation for 24-72 hours with ICA-1 (0.1 μM-60 μM), both the control cells and ICA-1 treated cells were trypsinized and viable cells were counted using trypan blue exclusion assay and a hematocytometry. […]

LNCaP cells = experiment: Cell viability, trypan blue exclusion assay, LNCaP; type: cell-based, human
Method: as §1, §2, §3, §4

PKC-ι = biological target: T1, PKC-ι (Homo sapiens, UniProt P41743); experiment: Kinase assay: phosphorylation of IKKα/β by immunoprecipitated PKC-ι from DU-145 cells; type: biochemical; details: ICA-1 100 nM, co-immunoprecipitated PKC-ι and IKKα/β
T1 construct: Cell lysates (50 μg) of an exponentially growing DU-145 cells were immunoprecipitated with either rabbit polyclonal PKC-ι antibody; endogenous in cells; host or cells: DU-145 (whole cell lysate, immunoprecipitate on anti-rabbit IgG-agarose beads)
T1 sequence (P41743 1-596): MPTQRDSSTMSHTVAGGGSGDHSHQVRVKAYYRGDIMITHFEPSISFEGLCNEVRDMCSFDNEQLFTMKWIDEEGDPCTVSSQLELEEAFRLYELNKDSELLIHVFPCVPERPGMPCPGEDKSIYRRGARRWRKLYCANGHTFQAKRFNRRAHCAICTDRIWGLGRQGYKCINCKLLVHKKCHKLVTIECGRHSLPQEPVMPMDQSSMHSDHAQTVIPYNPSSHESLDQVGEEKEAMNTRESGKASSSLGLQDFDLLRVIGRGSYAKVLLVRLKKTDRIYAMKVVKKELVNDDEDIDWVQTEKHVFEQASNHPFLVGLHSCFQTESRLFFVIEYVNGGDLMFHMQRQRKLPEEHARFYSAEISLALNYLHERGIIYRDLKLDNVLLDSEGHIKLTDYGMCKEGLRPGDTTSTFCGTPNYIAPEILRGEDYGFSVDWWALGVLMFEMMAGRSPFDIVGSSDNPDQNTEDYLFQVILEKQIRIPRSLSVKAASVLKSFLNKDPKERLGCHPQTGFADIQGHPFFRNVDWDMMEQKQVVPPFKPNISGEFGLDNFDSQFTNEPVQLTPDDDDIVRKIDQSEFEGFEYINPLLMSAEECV
Method: DU-145 cells (3.75×10^5) were grown as a monolayer in T75 flasks overnight. Whole cell lysates of (100 μg) were immunoprecipitated as follows: cell lystaes (50 μg) were pre-cleared for 30 min at 4° C. with anti-rabbit IgG-agarose beads (1:1 v/v, 10 μl) (catalog number A8914; Sigma Aldrich) and incubated with 5 μg of PKC-ι rabbit polyclonal antibody and/or IKKα/β rabbit polyclonal antibody (5 μg) overnight at 4° C. and then a further 1 h with anti-rabbit IgG-agarose beads (1:1 v/v, 50 μl). The immunoprecipitated samples were incubated with kinase buffer (50 μl of 3.03 mg/10 ml ATP, 30 mM of Tris p.H 7.4, 50 μl of 5 μg phosphotidylserine) at 30° C. in a water bath for 5 minutes. The reaction was terminated by placing the samples in ice. The PKC-ι inhibitor 1H-imidazole-4-carboxamide, 5-amino-1-[2,3-dihydroxy-4-[(phosphonooxy)methyl]cyclopentyl]-, [1R-(1a, 2b, 3b, 4a)] (ICA-1; 100 nM) was synthesized by Southern Research Institute (Birmingham, Ala.). […]
as §4

NC(=O)c1ncn(C2CC(COP(=O)(O)O)C(O)C2O)c1N (stereo not drawn) [ICA-1, 1H-imidazole-4-carboxamide, 5-amino-1-[2,3-dihydroxy-4-[(phosphonooxy)methyl]cyclopentyl]-, [1R-(1a, 2b, 3b, 4a)]]
inhibition of cell proliferation (DU-145 cells; DU-145, ICA-1 0.1 μM-60 μM, 24-72 hours): does not significantly (p>0.05 for both cell lines) inhibit | cell numbers at low concentration (DU-145 cells; DU-145, ICA-1 0.1-0.5 μM): increase in cell numbers | cell growth at high concentration (DU-145 cells; DU-145, ICA-1 10-60 μM): inhibition of cell growth | inhibition of cell proliferation (LNCaP cells; ICA-1 0.1 μM-60 μM, 24-72 hours): does not significantly (p>0.05 for both cell lines) inhibit | cell numbers at low concentration (LNCaP cells; ICA-1 0.1-0.5 μM): increase in cell numbers | cell growth at high concentration (LNCaP cells; ICA-1 10-60 μM): inhibition of cell growth | phosphorylation of IKKα/β (Ser176/180) by PKC-ι (PKC-ι): inhibited
